Earlier results on 1 molecule are cited in patent US20140128469A1, “[…]-BUTYL BUMETANIDE” (CONCERT PHARMACEUTICALS INC., priority 2011, published 2014).

The target of data set [1] is T1, Na+K+2Cl— co-transporter (NKCC1) (Homo sapiens, UniProt P55011).
T1 sequence (P55011 1-1212): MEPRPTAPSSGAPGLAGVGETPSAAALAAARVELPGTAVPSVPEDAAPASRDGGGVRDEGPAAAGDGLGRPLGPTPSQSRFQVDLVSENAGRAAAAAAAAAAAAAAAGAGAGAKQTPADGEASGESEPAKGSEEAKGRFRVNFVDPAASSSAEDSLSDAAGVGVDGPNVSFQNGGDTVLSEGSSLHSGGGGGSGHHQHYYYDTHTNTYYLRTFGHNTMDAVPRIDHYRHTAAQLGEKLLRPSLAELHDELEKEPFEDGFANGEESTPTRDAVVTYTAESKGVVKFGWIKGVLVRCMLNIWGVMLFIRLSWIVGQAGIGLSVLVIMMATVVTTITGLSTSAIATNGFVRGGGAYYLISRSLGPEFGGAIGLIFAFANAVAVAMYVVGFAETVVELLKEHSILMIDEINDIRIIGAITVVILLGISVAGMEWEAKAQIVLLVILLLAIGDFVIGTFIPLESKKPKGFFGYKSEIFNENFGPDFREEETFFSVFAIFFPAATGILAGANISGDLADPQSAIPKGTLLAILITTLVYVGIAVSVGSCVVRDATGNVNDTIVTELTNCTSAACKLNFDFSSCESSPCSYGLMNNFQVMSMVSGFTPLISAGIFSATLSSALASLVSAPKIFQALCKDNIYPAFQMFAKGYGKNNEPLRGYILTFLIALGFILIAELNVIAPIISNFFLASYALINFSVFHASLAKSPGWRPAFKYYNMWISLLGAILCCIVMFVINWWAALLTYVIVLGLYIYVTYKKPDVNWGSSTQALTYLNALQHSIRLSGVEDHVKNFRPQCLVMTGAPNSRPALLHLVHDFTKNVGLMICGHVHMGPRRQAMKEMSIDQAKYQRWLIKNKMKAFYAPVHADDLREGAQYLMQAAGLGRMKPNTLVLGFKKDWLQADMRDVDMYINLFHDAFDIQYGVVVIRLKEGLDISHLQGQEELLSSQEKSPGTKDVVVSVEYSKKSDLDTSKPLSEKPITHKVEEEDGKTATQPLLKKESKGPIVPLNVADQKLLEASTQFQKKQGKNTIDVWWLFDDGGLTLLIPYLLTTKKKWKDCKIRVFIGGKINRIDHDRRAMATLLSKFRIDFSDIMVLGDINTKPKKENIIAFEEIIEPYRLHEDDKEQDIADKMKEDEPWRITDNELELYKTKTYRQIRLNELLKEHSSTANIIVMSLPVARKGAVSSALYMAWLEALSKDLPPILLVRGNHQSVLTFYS

The target in data set [2] is T2, Na+K+2Cl— co-transporter (NKCC2) (Homo sapiens, UniProt Q13621).
T2 sequence (Q13621 1-1099): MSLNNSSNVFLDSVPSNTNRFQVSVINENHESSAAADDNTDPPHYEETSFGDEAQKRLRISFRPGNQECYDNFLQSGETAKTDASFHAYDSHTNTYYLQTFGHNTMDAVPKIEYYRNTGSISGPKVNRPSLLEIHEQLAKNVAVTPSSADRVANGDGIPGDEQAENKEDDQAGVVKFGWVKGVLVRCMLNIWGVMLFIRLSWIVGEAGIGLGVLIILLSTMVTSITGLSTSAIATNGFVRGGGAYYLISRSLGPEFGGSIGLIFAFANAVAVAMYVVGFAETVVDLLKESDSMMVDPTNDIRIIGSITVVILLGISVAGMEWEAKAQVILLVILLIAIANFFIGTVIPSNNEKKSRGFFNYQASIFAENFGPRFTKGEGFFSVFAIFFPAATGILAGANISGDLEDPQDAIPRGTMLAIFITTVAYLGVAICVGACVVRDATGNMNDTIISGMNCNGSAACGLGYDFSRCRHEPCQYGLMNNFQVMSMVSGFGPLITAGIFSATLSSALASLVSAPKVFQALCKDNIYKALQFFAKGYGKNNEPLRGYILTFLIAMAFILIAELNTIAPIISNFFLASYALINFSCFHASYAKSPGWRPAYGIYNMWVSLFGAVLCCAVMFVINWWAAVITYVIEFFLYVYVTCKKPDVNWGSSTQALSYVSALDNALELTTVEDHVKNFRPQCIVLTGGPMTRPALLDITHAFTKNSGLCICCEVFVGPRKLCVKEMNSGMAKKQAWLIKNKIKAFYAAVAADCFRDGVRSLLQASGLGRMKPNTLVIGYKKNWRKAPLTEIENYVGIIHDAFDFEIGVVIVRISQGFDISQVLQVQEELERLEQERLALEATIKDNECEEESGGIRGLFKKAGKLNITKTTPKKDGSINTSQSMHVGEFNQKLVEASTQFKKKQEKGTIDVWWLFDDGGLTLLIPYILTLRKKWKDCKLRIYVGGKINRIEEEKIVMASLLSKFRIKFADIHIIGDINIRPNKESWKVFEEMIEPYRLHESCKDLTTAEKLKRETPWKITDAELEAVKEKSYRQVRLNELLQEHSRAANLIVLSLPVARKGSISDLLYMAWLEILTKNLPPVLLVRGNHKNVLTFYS

Data set [3] relates to models of neuropathic and nociceptive pain. Particulars: in vivo.
The test system of another data set is models of migraine. Particulars: in vivo.
For data set [4] the following is noted: preclinical models.
The conditions of data set [5]: preclinical toxicology studies, see WO 2010/085352.

Regarding `CCCCN(CCCC)c1cc(C(=O)O)cc(S(N)(=O)=O)c1Oc1ccccc1` [N-butyl bumetanide], in data set [1], the “action on NKCC1” value was “does not act on”. Besides, the “action on NKCC2” value in data set [2] is “does not act on”. Besides, the GABAA modulation entry in the data set with GABAA was “subtype-selective GABAA modulatory actions”. Also, in the data set with models of epilepsy (epilepsy models resistant to currently-marketed anti-epileptic drugs), the amelioration of seizures result is “effective in ameliorating seizures”. Moreover, in the data set with models of epilepsy (in vivo), the “efficacy in models of epilepsy” value is on record as “effective”. Also, the “efficacy in models of neuropathic and nociceptive pain” value in data set [3] is given as “effective”. Also, the “efficacy in models of migraine” value in the data set on models of migraine is reported as “effective”. Further, the diuresis result in data set [4] is on record as “does not cause diuresis”. Moreover, the therapeutic safety margin result in data set [5] is given as “large therapeutic safety margin”.
